Measured values: ChEMBL document CHEMBL4806958, “Anti-cancer/anti-fibrosis compounds” (2020)
pIC50: −log10 of the molar value.

Key:
[1] = target: Casein kinase II subunit alpha (Homo sapiens, UniProt P68400); assay: Inhibition of CSNK2A1(unknown origin) using Ser/Thr 11 as substrate incubated for 60 mins in presence of ATP by Z'-LYTE assay
[2] = target: Homeodomain-interacting protein kinase 2 (Homo sapiens, UniProt Q9H2X6); assay: Inhibition of HIPK2 (unknown origin) using Ser/Thr 09 as substrate incubated for 60 mins in presence of ATP by Z'-Lyte assay
Chain of Homeodomain-interacting protein kinase 2 (Q9H2X6 whole entry): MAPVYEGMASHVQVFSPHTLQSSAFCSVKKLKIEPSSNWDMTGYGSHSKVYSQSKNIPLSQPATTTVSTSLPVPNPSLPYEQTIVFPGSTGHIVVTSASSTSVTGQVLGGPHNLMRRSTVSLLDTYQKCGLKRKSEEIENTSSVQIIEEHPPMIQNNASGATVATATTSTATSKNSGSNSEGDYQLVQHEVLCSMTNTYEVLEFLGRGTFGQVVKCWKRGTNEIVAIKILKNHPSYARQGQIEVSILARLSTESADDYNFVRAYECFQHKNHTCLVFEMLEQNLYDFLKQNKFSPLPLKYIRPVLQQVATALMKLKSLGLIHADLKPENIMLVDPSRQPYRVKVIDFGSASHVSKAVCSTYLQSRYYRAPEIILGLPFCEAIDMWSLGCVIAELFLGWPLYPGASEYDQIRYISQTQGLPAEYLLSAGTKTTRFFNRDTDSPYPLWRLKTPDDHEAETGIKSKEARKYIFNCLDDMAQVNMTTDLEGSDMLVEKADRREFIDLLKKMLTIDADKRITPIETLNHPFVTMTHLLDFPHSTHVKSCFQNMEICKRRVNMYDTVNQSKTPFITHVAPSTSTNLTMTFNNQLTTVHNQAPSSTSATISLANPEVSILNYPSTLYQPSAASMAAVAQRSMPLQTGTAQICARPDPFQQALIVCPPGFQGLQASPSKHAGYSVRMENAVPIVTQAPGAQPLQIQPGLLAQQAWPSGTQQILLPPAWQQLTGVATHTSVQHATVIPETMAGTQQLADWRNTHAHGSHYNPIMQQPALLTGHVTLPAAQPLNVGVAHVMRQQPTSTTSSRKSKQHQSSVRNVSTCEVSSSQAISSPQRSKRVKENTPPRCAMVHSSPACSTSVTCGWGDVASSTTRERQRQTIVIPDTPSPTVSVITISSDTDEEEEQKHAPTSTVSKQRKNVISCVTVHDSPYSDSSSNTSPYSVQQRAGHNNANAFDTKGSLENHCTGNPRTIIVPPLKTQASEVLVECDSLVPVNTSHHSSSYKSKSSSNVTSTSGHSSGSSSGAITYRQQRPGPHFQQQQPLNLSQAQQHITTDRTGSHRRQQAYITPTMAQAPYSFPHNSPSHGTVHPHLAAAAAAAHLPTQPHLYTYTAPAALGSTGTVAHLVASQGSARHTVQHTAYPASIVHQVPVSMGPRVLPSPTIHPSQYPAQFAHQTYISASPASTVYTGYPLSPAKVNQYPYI

Chain of Casein kinase II subunit alpha (P68400 whole entry): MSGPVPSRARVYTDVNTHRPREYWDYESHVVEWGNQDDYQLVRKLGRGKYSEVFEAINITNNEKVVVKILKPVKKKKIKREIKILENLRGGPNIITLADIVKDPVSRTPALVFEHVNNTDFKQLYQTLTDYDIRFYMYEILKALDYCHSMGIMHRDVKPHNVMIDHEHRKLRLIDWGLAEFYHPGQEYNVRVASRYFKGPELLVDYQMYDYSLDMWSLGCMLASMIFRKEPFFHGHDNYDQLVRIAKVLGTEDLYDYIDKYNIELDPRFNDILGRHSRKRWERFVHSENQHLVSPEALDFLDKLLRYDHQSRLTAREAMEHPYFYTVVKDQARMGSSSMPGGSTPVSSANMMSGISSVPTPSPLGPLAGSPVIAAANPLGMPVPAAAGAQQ

SMILES	pIC50 [1]	pIC50 [2]
N[C@@H]1CCCN(c2cc3cc(C(=O)O)ccc3c3cnccc23)C1	> 6.52	< 5.30
O=C(O)c1ccc2c(c1)cc(NC1CCCC1)c1ccncc12	> 6.52	–
O=C(O)c1ccc2c(c1)cc(NC1CC1)c1ccncc12	> 6.52	> 6.52

The next lines start with the values.

pIC50 [1]	pIC50 [2]	SMILES
> 6.52	–	O=C(O)c1ccc2c(c1)cc([N+](=O)[O-])c1ccncc12
> 6.52	–	O=C(O)c1ccc2c(c1)cc(NC1CCCCC1)c1ccncc12
> 6.52	–	O=C(O)c1ccc2c(c1)cc(Cl)c1ccncc12
> 6.52	–	O=C(O)c1ccc2c(c1)cc(C1CC1)c1ccncc12
